# Results: patent US20120029187A1, “HALOALKYLSULFONANILIDE DERIVATIVE” (Nissan Chemical Industries, Ltd., priority 2009, published 2012)
# Tests used:
# Assay type in all cases: in vivo
# barnyardgrass [1] = experiment: Test Example 1: herbicidal effects in preemergence treatment under submerged conditions; conditions: dose 2.52 g/a
# Outline: (§1)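 Weed seeds and 2.5-leaf rice seedlings shared each flooded cup of alluvial soil. Dosing, expressed as g per are, was by pouring water-diluted emulsifiable concentrate onto the surface on sowing day. Mortality was graded 0 to 5 after three weeks' growth.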
# bulrush [2] = experiment: as above; conditions: dose 2.52 g/a
# Outline: as §1
# ducksalad [3] = experiment: as above; conditions: dose 2.52 g/a
# Outline: as §1
# transplanted rice = experiment: Test Example 1: preemergence treatment under submerged conditions, effect on crop; conditions: dose 2.52 g/a
# Outline: as §1
# barnyardgrass [4] = experiment: Test Example 2: herbicidal effects during the vegetation period under submerged conditions; conditions: treatment during the vegetation period under submerged conditions; dose 2.52 g/a
# Outline: (§2)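 Barnyardgrass, bulrush and ducksalad were co-sown in alluvial soil flooded to 4 cm and grown in a greenhouse at 25 to 30° C. At the 1- or 2-leaf stage, water-diluted emulsifiable concentrates went onto the water surface at set doses (g/a). Herbicidal effect was scored three weeks later on a graded scale.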
# bulrush [5] = experiment: as above; conditions: treatment during the vegetation period under submerged conditions; dose 2.52 g/a
# Outline: as §2
# ducksalad [6] = experiment: as above; conditions: treatment during the vegetation period under submerged conditions; dose 2.52 g/a
# Outline: as §2
# Italian ryegrass [7] = experiment: Test Example 3: herbicidal effects in soil treatment; conditions: dose 6.3 g/a
# Outline: (§3)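 Seeds were sown in sterilized diluvial soil and covered with about 1.5 cm of soil. Compounds, formulated as emulsifiable concentrates and diluted with water, were sprayed evenly over the soil surface at set doses in g/a. Herbicidal effect was scored on a rating scale three weeks later.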
# barnyardgrass [8] = experiment: as above; conditions: dose 6.3 g/a
# Outline: as §3
# common chickweed [9] = experiment: as above; conditions: dose 6.3 g/a
# Outline: as §3
# common lambsquater [10] = experiment: as above; conditions: dose 6.3 g/a
# Outline: as §3
# common ragweed [11] = experiment: as above; conditions: dose 6.3 g/a
# Outline: as §3
# giant foxtail [12] = experiment: as above; conditions: dose 6.3 g/a
# Outline: as §3
# large crabgrass [13] = experiment: as above; conditions: dose 6.3 g/a
# Outline: as §3
# redroot pigweed [14] = experiment: as above; conditions: dose 6.3 g/a
# Outline: as §3
# water foxtail [15] = experiment: as above; conditions: dose 6.3 g/a
# Outline: as §3
# wild oat [16] = experiment: as above; conditions: dose 6.3 g/a
# Outline: as §3
# Italian ryegrass [17] = experiment: Test Example 4: herbicidal effect in foliage treatment; conditions: dose 6.3 g/a, three weeks after application
# Outline: (§4)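 Sowing in sterilized diluvial soil, ~1.5 cm cover; growth 14 d, 25–30° C greenhouse; foliar spray of water-diluted EC at predetermined g/a; scoring 3 wk later on graded scale.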
# barnyardgrass [18] = experiment: as above; conditions: dose 6.3 g/a, three weeks after application
# Outline: as §4
# beadstraw = experiment: as above; conditions: dose 6.3 g/a, three weeks after application
# Outline: as §4
# common chickweed [19] = experiment: as above; conditions: dose 6.3 g/a, three weeks after application
# Outline: as §4
# common lambsquater [20] = experiment: as above; conditions: dose 6.3 g/a, three weeks after application
# Outline: as §4
# common ragweed [21] = experiment: as above; conditions: dose 6.3 g/a, three weeks after application
# Outline: as §4
# giant foxtail [22] = experiment: as above; conditions: dose 6.3 g/a, three weeks after application
# Outline: as §4
# large crabgrass [23] = experiment: as above; conditions: dose 6.3 g/a, three weeks after application
# Outline: as §4
# redroot pigweed [24] = experiment: as above; conditions: dose 6.3 g/a, three weeks after application
# Outline: as §4
# water foxtail [25] = experiment: as above; conditions: dose 6.3 g/a, three weeks after application
# Outline: as §4
# wild oat [26] = experiment: as above; conditions: dose 6.3 g/a, three weeks after application
# Outline: as §4
Compound,"A: barnyardgrass, herbicidal effect (evaluation scale 0-5) (barnyardgrass [1])","B: bulrush, herbicidal effect (evaluation scale 0-5) (bulrush [2])","C: ducksalad, herbicidal effect (evaluation scale 0-5) (ducksalad [3])","a: transplanted rice, effect on crop (evaluation scale 0-5) (transplanted rice)","A: barnyardgrass, herbicidal effect (evaluation scale 0-5) (barnyardgrass [4])","B: bulrush, herbicidal effect (evaluation scale 0-5) (bulrush [5])","C: ducksalad, herbicidal effect (evaluation scale 0-5) (ducksalad [6])","H: Italian ryegrass, herbicidal effect (evaluation scale 0-5) (Italian ryegrass [7])","A: barnyardgrass, herbicidal effect (evaluation scale 0-5) (barnyardgrass [8])","N: common chickweed, herbicidal effect (evaluation scale 0-5) (common chickweed [9])","L: common lambsquater, herbicidal effect (evaluation scale 0-5) (common lambsquater [10])","J: common ragweed, herbicidal effect (evaluation scale 0-5) (common ragweed [11])","E: giant foxtail, herbicidal effect (evaluation scale 0-5) (giant foxtail [12])","D: large crabgrass, herbicidal effect (evaluation scale 0-5) (large crabgrass [13])","K: redroot pigweed, herbicidal effect (evaluation scale 0-5) (redroot pigweed [14])","G: water foxtail, herbicidal effect (evaluation scale 0-5) (water foxtail [15])","F: wild oat, herbicidal effect (evaluation scale 0-5) (wild oat [16])","H: Italian ryegrass, herbicidal effect (Italian ryegrass [17])","A: barnyardgrass, herbicidal effect (barnyardgrass [18])","O: beadstraw, herbicidal effect (beadstraw)",further results
CCOC(=O)N(c1ccccc1CN1COC(C)CC1=O)S(=O)(=O)C(F)(F)F (centres unmarked) [II-7],5 (mortality of 90% or above (nearly complete death)),5 (mortality of 90% or above (nearly complete death)),5 (mortality of 90% or above (nearly complete death)),0 (mortality of less than 5% (almost ineffective)),5 (mortality of 90% or above (nearly complete death)),5 (mortality of 90% or above (nearly complete death)),4 (mortality of at least 70% and less than 90%),2 (mortality of at least 20% and less than 40%),5 (mortality of 90% or above (nearly complete death)),4 (mortality of at least 70% and less than 90%),5 (mortality of 90% or above (nearly complete death)),4 (mortality of at least 70% and less than 90%),5 (mortality of 90% or above (nearly complete death)),5 (mortality of 90% or above (nearly complete death)),0 (mortality of less than 5% (almost ineffective)),5 (mortality of 90% or above (nearly complete death)),2 (mortality of at least 20% and less than 40%),3 (mortality of at least 40% and less than 70%),5 (mortality of 90% or above (nearly complete death)),3 (mortality of at least 40% and less than 70%),"N: common chickweed, herbicidal effect (common chickweed [19]): 2 (mortality of at least 20% and less than 40%); L: common lambsquater, herbicidal effect (common lambsquater [20]): 5 (mortality of 90% or above (nearly complete death)); J: common ragweed, herbicidal effect (common ragweed [21]): 5 (mortality of 90% or above (nearly complete death)); E: giant foxtail, herbicidal effect (giant foxtail [22]): 5 (mortality of 90% or above (nearly complete death)); D: large crabgrass, herbicidal effect (large crabgrass [23]): 5 (mortality of 90% or above (nearly complete death)); K: redroot pigweed, herbicidal effect (redroot pigweed [24]): 0 (mortality of less than 5% (almost ineffective)); G: water foxtail, herbicidal effect (water foxtail [25]): 5 (mortality of 90% or above (nearly complete death)); F: wild oat, herbicidal effect (wild oat [26]): 0 (mortality of less than 5% (almost ineffective))"
CC(C)COC(=O)N(c1ccccc1CN1COC(C)CC1=O)S(=O)(=O)C(F)(F)F (centres unmarked) [II-8],5 (mortality of 90% or above (nearly complete death)),5 (mortality of 90% or above (nearly complete death)),5 (mortality of 90% or above (nearly complete death)),0 (mortality of less than 5% (almost ineffective)),5 (mortality of 90% or above (nearly complete death)),5 (mortality of 90% or above (nearly complete death)),4 (mortality of at least 70% and less than 90%),0 (mortality of less than 5% (almost ineffective)),5 (mortality of 90% or above (nearly complete death)),3 (mortality of at least 40% and less than 70%),4 (mortality of at least 70% and less than 90%),5 (mortality of 90% or above (nearly complete death)),4 (mortality of at least 70% and less than 90%),4 (mortality of at least 70% and less than 90%),0 (mortality of less than 5% (almost ineffective)),5 (mortality of 90% or above (nearly complete death)),0 (mortality of less than 5% (almost ineffective)),0 (mortality of less than 5% (almost ineffective)),5 (mortality of 90% or above (nearly complete death)),1 (mortality of at least 5% and less than 20%),"N: common chickweed, herbicidal effect (common chickweed [19]): 1 (mortality of at least 5% and less than 20%); L: common lambsquater, herbicidal effect (common lambsquater [20]): 5 (mortality of 90% or above (nearly complete death)); J: common ragweed, herbicidal effect (common ragweed [21]): 4 (mortality of at least 70% and less than 90%); E: giant foxtail, herbicidal effect (giant foxtail [22]): 4 (mortality of at least 70% and less than 90%); D: large crabgrass, herbicidal effect (large crabgrass [23]): 5 (mortality of 90% or above (nearly complete death)); K: redroot pigweed, herbicidal effect (redroot pigweed [24]): 0 (mortality of less than 5% (almost ineffective)); G: water foxtail, herbicidal effect (water foxtail [25]): 5 (mortality of 90% or above (nearly complete death)); F: wild oat, herbicidal effect (wild oat [26]): 0 (mortality of less than 5% (almost ineffective))"
